Measurements reported in patent publication EP0745595A1, “3-(3-Aryloxyphenyl)-1-(substituted methyl)-s-triazine-2,4,6-oxo or thiotrione herbicidal agents” (American Cyanamid Company, priority 1995, dated 1996).

Assays:
Format in all cases: in vivo
[1] = test system: ABUTILON THEOPHRASTI, MEDIC.; test: Preemergence herbicidal evaluation, ABUTH (Velvetleaf); settings: rated four to five weeks after treatment
Excerpt: (§1) Results of herbicide evaluation are expressed on a rating scale (0-9). The scale is based upon a visual observation of plant stand, vigor, malformation, size, chlorosis and overall plant appearance as compared with a control.
(§2) The preemergence herbicidal activity of the test compounds of the present invention is exemplified by the following tests in which the seeds of a variety of monocotyledonous and dicotyledonous plants are separately mixed with potting soil and planted on top of approximately one inch of soil in separate pint cups. […] The treated cups are then placed on greenhouse benches, watered and cared for in accordance with conventional greenhouse procedures. From four to five weeks after treatment, the tests are terminated and each cup is examined and rated according to the rating system provided in Example 40.
(§3) The compounds evaluated are reported by compound number given in Example 40.

IPOMOEA SPP. [2] = test: Preemergence herbicidal evaluation, IPOSS (Morningglory spp.); settings: rated four to five weeks after treatment
Excerpt: as §1, §2, §3

[3] = test system: AMBROSIA ARTEMISIIFOLIA, L.; test: Preemergence herbicidal evaluation, AMBEL (Ragweed, Common); settings: rated four to five weeks after treatment
How it was run: (§4)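 Injury scored visually (0–9; stand, vigor, malformation, size, chlorosis) versus untreated control, four to five weeks post-treatment. Application: aqueous acetone spray onto freshly planted soil cups, equivalent to about 0.125 to 0.50 kg/ha, plants then kept under standard greenhouse care.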

SAGITTARIA PYGMAEA, L. = test: Preemergence weed control under flooded paddy conditions, SAGPY (Arrowhead (Pygmaea)); settings: preemergence, 3-4 weeks after treatment
How it was run: (§5)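 Seeds or propagules sown in top 0.5 cm of silt loam in undrained containers, flooded 1.5 to 3 cm throughout. Compounds in aqueous/acetone 50/50 v/v pipetted into flood water at about 0.5, 0.25, 0.125 and 0.063 kg/ha. Visual 0-9 rating versus control after three to four weeks in greenhouse.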

CYPERUS IRIA = test: Preemergence weed control under flooded paddy conditions, CYPIR (Rice Flatsedge); settings: preemergence, 3-4 weeks after treatment
How it was run: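 Seeds or propagating organs of rice flatsedge were planted in the top 0.5 cm of silt loam soil in 32 oz. plastic containers, 10.5 cm across and without drainage holes. Water was kept 1.5 to 3 cm above the soil throughout. Treated containers were kept on greenhouse benches, and herbicidal effect was visually rated on a 0-9 scale against a control.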

[4] = test system: CYPERUS SEROTINUS, ROTTB.; test: Preemergence weed control under flooded paddy conditions, CYPSE (Flatsedge); settings: preemergence, 3-4 weeks after treatment
How it was run: as §5

[5] = test system: SETARIA VIRIDIS, (L) BEAU; test: Preemergence herbicidal evaluation, SETVI (Foxtail, Green); settings: rated four to five weeks after treatment
Excerpt: as §1, §2, §3

[6] = test system: ORYZA SATIVA, L. TEBONNET; test: Rice tolerance to post-transplant applications under flooded paddy conditions, ORYSAT (Rice, Tebonnet); settings: post-transplant rice, 3-4 weeks after treatment
How it was run: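 Two ten-day-old Tebonnet rice seedlings were transplanted into silt loam and kept flooded 1.5 to 3 cm deep. Three days after transplanting, the flood surface received the compound in aqueous/acetone 50/50 v/v at about 0.5, 0.25, 0.125 or 0.063 kg/ha. Injury was rated visually on a 0-9 scale versus control after 3-4 weeks.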

CASSIA OBTUSIFOLIA, L. [7] = test: Preemergence herbicidal evaluation, CASOB (Sicklepod); settings: rated four to five weeks after treatment
How it was run: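 Seeds of various monocot and dicot plants, including sicklepod, were each mixed with potting soil and sown on roughly one inch of soil in separate pint cups for preemergence testing. Treated cups were kept on greenhouse benches, watered and maintained conventionally. Four to five weeks after treatment, each cup was visually rated on a 0-9 scale against a control.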

[8] = test system: ECHINOCHLOA CRUS-GALLI, (L) BEAU; test: Preemergence herbicidal evaluation, ECHCG (Barnyardgrass); settings: rated four to five weeks after treatment
How it was run: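 Barnyardgrass seeds were mixed with potting soil and planted on about one inch of soil in pint cups for preemergence testing. Treated cups were kept on greenhouse benches, watered and maintained by standard greenhouse practice. After four to five weeks, each cup was visually rated on a 0-9 scale against an untreated control.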

[9] = test system: SETARIA VIRIDIS, (L) BEAU; test: Postemergence herbicidal evaluation, SETVI (Foxtail, Green); parameters: key to SETVI rating / Herbicidal effect rating, SETVI / SETVI: 0-9 visual rating scale vs untreated control
How it was run: (§6)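 Seedlings about two weeks old were sprayed with compound in 50/50 acetone/water containing 0.5% Tween 20 at about 0.125-0.500 kg/ha and kept in the greenhouse. Visual injury was rated on a 0-9 scale versus control 4-5 weeks after treatment; repeat tests were averaged.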

[10] = test system: GLYCINE MAX(L) MERR. CV. WILLIAMS; test: Preemergence herbicidal evaluation, GLXMAW (Soybean, Williams); settings: rated four to five weeks after treatment
How it was run: as §4

CASSIA OBTUSIFOLIA, L. [11] = test: Postemergence herbicidal evaluation, CASOB (Sicklepod); parameters: key to CASOB rating / Herbicidal effect rating, CASOB / CASOB: 0-9 visual rating scale vs untreated control
How it was run: as §6

CHENOPODIUM ALBUM, L. [12] = test: Postemergence herbicidal evaluation, CHEAL (Lambsquarters, Common)
How it was run: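 Seedlings of common lambsquarters (Chenopodium album) were raised in jiffy flats for roughly two weeks, then sprayed postemergence through a nozzle at 40 psi with test compound dispersed in 50/50 acetone/water containing 0.5% TWEEN®20 surfactant. Plants were kept on greenhouse benches under standard care and rated visually on a 0-9 scale versus controls.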

IPOMOEA SPP. [13] = test: Postemergence herbicidal evaluation, IPOSS (Morningglory spp.)
How it was run: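 Seedlings of morningglory (Ipomoea spp.) were raised in jiffy flats for roughly two weeks. They were then sprayed postemergence through a nozzle at 40 psi with test compound dispersed in 50/50 acetone/water containing 0.5% TWEEN®20 surfactant. Plants were kept on greenhouse benches under standard care and visually rated 0-9 against controls four to five weeks after treatment.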

[14] = test system: ORYZA SATIVA, L. TEBONNET; test: Preemergence herbicidal evaluation, ORYSAT (Rice, Tebonnet); settings: rated four to five weeks after treatment
Excerpt: as §1, §2, §3

CHENOPODIUM ALBUM, L. [15] = test: Preemergence herbicidal evaluation, CHEAL (Lambsquarters, Common); settings: rated four to five weeks after treatment
How it was run: as §4

ZEA MAYS L. = test: Preemergence herbicidal evaluation, ZEAMX (Corn, Field); settings: rated four to five weeks after treatment
How it was run: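 Corn (Zea mays) seeds were mixed with potting soil and planted on about one inch of soil in pint cups, then treated preemergence. Cups were kept on greenhouse benches, watered and maintained conventionally, and after four to five weeks were visually rated on a 0-9 scale versus an untreated control.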

[16] = test system: TRITICUM AESTIVUM, CV. APOLLO; test: Preemergence herbicidal evaluation, TRZAWO (Wheat, Winter, CV. APOLLO); settings: rated four to five weeks after treatment
How it was run: as §4

## COC(=O)Cn1c(=O)n(C)c(=O)n(-c2cc(Oc3c(Cl)cccc3Cl)ccc2[N+](=O)[O-])c1=O [Compound 37, Methyl 3-[5-(2,6-dichlorophenoxy)-2-nitrophenyl]tetrahydro-5-methyl-2,4,6-trioxo-s-triazine-1(2H)-acetate]
[1]; Rate 0.125 kg/ha
  ABUTH herbicidal rating: 0.0
[1]; Rate 0.250 kg/ha
  ABUTH herbicidal rating: 0.0
[1]; Rate 0.500 kg/ha
  ABUTH herbicidal rating: 0.0
IPOMOEA SPP. [2]; Rate 0.125 kg/ha
  IPOSS herbicidal rating: 0.0
IPOMOEA SPP. [2]; Rate 0.250 kg/ha
  IPOSS herbicidal rating: 0.0
IPOMOEA SPP. [2]; Rate 0.500 kg/ha
  IPOSS herbicidal rating: 0.0
[3]; Rate 0.125 kg/ha
  AMBEL herbicidal rating: 0.0
[3]; Rate 0.250 kg/ha
  AMBEL herbicidal rating: 0.0
[3]; Rate 0.500 kg/ha
  AMBEL herbicidal rating: 0.0
SAGITTARIA PYGMAEA, L.; 0.063 kg/ha
  Herbicidal effect rating, SAGPY: 0.0
SAGITTARIA PYGMAEA, L.; 0.125 kg/ha
  Herbicidal effect rating, SAGPY: 0.0
SAGITTARIA PYGMAEA, L.; 0.250 kg/ha
  Herbicidal effect rating, SAGPY: 0.0
SAGITTARIA PYGMAEA, L.; 0.500 kg/ha
  Herbicidal effect rating, SAGPY: 0.0
CYPERUS IRIA; 0.063 kg/ha
  Herbicidal effect rating, CYPIR: 0.0
CYPERUS IRIA; 0.125 kg/ha
  Herbicidal effect rating, CYPIR: 0.0
CYPERUS IRIA; 0.250 kg/ha
  Herbicidal effect rating, CYPIR: 0.0
CYPERUS IRIA; 0.500 kg/ha
  Herbicidal effect rating, CYPIR: 0.0
[4]; 0.063 kg/ha
  Herbicidal effect rating, CYPSE: 0.0
[4]; 0.125 kg/ha
  Herbicidal effect rating, CYPSE: 0.0
[4]; 0.250 kg/ha
  Herbicidal effect rating, CYPSE: 0.0
[4]; 0.500 kg/ha
  Herbicidal effect rating, CYPSE: 0.0
[5]; Rate 0.125 kg/ha
  SETVI herbicidal rating: 0.0
[5]; Rate 0.250 kg/ha
  SETVI herbicidal rating: 0.0
[5]; Rate 0.500 kg/ha
  SETVI herbicidal rating: 0.0
[6]; 0.063 kg/ha
  Herbicidal effect rating, ORYSAT: 0.0
[6]; 0.125 kg/ha
  Herbicidal effect rating, ORYSAT: 1.0
[6]; 0.250 kg/ha
  Herbicidal effect rating, ORYSAT: 1.0
[6]; 0.500 kg/ha
  Herbicidal effect rating, ORYSAT: 2.0
CASSIA OBTUSIFOLIA, L. [7]; Rate 0.125 kg/ha
  CASOB herbicidal rating: 0.0
CASSIA OBTUSIFOLIA, L. [7]; Rate 0.250 kg/ha
  CASOB herbicidal rating: 0.0
CASSIA OBTUSIFOLIA, L. [7]; Rate 0.500 kg/ha
  CASOB herbicidal rating: 0.0
[8]; Rate 0.125 kg/ha
  ECHCG herbicidal rating: 0.0
[8]; Rate 0.250 kg/ha
  ECHCG herbicidal rating: 0.0
[8]; Rate 0.500 kg/ha
  ECHCG herbicidal rating: 0.0

## CC(C)OC(=O)Cn1c(=O)n(C)c(=O)n(-c2cc(Oc3ncc(C(F)(F)F)cc3Cl)ccc2Br)c1=O [Compound 44]
[9]; Rate 0.125 kg/ha
  SETVI rating: 9.0
[9]; Rate 0.250 kg/ha
  SETVI rating: 9.0
[9]; Rate 0.500 kg/ha
  SETVI rating: 9.0
[10]; Rate 0.125 kg/ha
  GLXMAW herbicidal rating: 0.0
[10]; Rate 0.250 kg/ha
  GLXMAW herbicidal rating: 0.0
[10]; Rate 0.500 kg/ha
  GLXMAW herbicidal rating: 0.0
[3]; Rate 0.125 kg/ha
  AMBEL herbicidal rating: 0.0
[3]; Rate 0.250 kg/ha
  AMBEL herbicidal rating: 0.0
[3]; Rate 0.500 kg/ha
  AMBEL herbicidal rating: 0.0
CASSIA OBTUSIFOLIA, L. [11]; Rate 0.125 kg/ha
  CASOB rating: 9.0
CASSIA OBTUSIFOLIA, L. [11]; Rate 0.250 kg/ha
  CASOB rating: 9.0
CASSIA OBTUSIFOLIA, L. [11]; Rate 0.500 kg/ha
  CASOB rating: 9.0
CHENOPODIUM ALBUM, L. [12]; Rate 0.125 kg/ha
  CHEAL rating: 9.0
CHENOPODIUM ALBUM, L. [12]; Rate 0.250 kg/ha
  CHEAL rating: 9.0
CHENOPODIUM ALBUM, L. [12]; Rate 0.500 kg/ha
  CHEAL rating: 9.0
[6]; 0.063 kg/ha
  Herbicidal effect rating, ORYSAT: 1.0
[6]; 0.125 kg/ha
  Herbicidal effect rating, ORYSAT: 1.0
[6]; 0.250 kg/ha
  Herbicidal effect rating, ORYSAT: 2.0
[6]; 0.500 kg/ha
  Herbicidal effect rating, ORYSAT: 3.0
IPOMOEA SPP. [13]; Rate 0.125 kg/ha
  IPOSS rating: 9.0
IPOMOEA SPP. [13]; Rate 0.250 kg/ha
  IPOSS rating: 9.0
IPOMOEA SPP. [13]; Rate 0.500 kg/ha
  IPOSS rating: 9.0
CASSIA OBTUSIFOLIA, L. [7]; Rate 0.500 kg/ha
  CASOB herbicidal rating: 0.0
[14]; Rate 0.125 kg/ha
  ORYSAT herbicidal rating: 0.0
[14]; Rate 0.250 kg/ha
  ORYSAT herbicidal rating: 0.0
[14]; Rate 0.500 kg/ha
  ORYSAT herbicidal rating: 0.0
CHENOPODIUM ALBUM, L. [15]; Rate 0.125 kg/ha
  CHEAL herbicidal rating: 9.0
CHENOPODIUM ALBUM, L. [15]; Rate 0.250 kg/ha
  CHEAL herbicidal rating: 9.0
CHENOPODIUM ALBUM, L. [15]; Rate 0.500 kg/ha
  CHEAL herbicidal rating: 9.0
ZEA MAYS L.; Rate 0.125 kg/ha
  ZEAMX herbicidal rating: 0.0
ZEA MAYS L.; Rate 0.250 kg/ha
  ZEAMX herbicidal rating: 0.0
ZEA MAYS L.; Rate 0.500 kg/ha
  ZEAMX herbicidal rating: 0.0
[16]; Rate 0.125 kg/ha
  TRZAWO herbicidal rating: 0.0
[16]; Rate 0.250 kg/ha
  TRZAWO herbicidal rating: 0.0
[16]; Rate 0.500 kg/ha
  TRZAWO herbicidal rating: 0.0
